Reference: patent publication US4444759A, “GnRH Antagonists II” (The Salk Institute for Biological Studies, priority 1982, dated 1984)
Square brackets hold non-standard residues; d marks the D form. Peptide text beside a SMILES is read from it. dPhe(4-NO2) = N[C@H](Cc1ccc([N+](=O)[O-])cc1)C(=O)O; dPhe(4-NH2) = Nc1ccc(C[C@@H](N)C(=O)O)cc1; dPhe(4-Br) = N[C@H](Cc1ccc(Br)cc1)C(=O)O; dPhe(4-Cl) = N[C@H](Cc1ccc(Cl)cc1)C(=O)O; dPhe(4-F) = N[C@H](Cc1ccc(F)cc1)C(=O)O; d2Nal = N[C@H](Cc1ccc2ccccc2c1)C(=O)O

tested on: LH released by 3 nanomolar GnRH in dissociated rat pituitary cells; type: cell-based; settings: not given
Procedure: The peptide is assayed in vitro and in vivo. The in vitro test is made using dissociated rat pituitary cells maintained in culture for 4 days prior to the assay. The levels of LH mediated in response to the application of peptides is assayed by specific radioimmunoassay for rat LH. Control dishes of cells only receive a measure which is 3 nanomolar in GnRH; experimental dishes receive a measure 3 nanomolar in GnRH plus a measure having either the present standard antagonist (for comparison purposes) i.e. [Ac-dehydro Pro^1, 4-F-D-Phe^2, D-Trp^3,6 ]-GnRH or the test peptide in concentrations ranging from 0.01 to 10 nanomolar. The amount of LH secreted in the samples treated only with GnRH is compared with that secreted by the samples treated with the peptide plus GnRH.
The ability of the test peptide to reduce the amount of LH released by 3 nanomolar GnRH is compared to that of the present standard peptide. The results are calculated using 3-5 doses of each of the peptides by the statistical program BIOPROG (provided by D. Rodbard NICHD) and are expressed as a potency relative to the present standard. The standard peptide usually blocks 50% of the LH released by GnRH at less than a ratio of 0.1 [antagonist]/1[GnRH].

Compared with CC(=O)N[C@H](Cc1ccc2ccccc2c1)C(=O)N[C@H](Cc1ccc(F)cc1)C(=O)N[C@H](Cc1c[nH]c2ccccc12)C(=O)N[C@@H](CO)C(=O)N[C@@H](Cc1ccc(O)cc1)C(=O)N[C@H](CCCNC(=N)N)C(=O)N[C@@H](CC(C)C)C(=O)N[C@@H](CCCNC(=N)N)C(=O)N1CCC[C@H]1C(=O)NCC(N)=O [Peptide 1, [Ac-β-D-2NAL^1,4-F-D-Phe^2,D-Trp^3, D-Arg^6]-GnRH] (Ac-[d2Nal][dPhe(4-F)][dW]SY[dR]LRPG-NH2), CC(=O)N[C@H](Cc1ccc2ccccc2c1)C(=O)N[C@H](Cc1ccc(Cl)cc1)C(=O)N[C@H](Cc1c[nH]c2ccccc12)C(=O)N[C@@H](CO)C(=O)N[C@@H](Cc1ccc(O)cc1)C(=O)N[C@H](CCCNC(=N)N)C(=O)N[C@@H](CC(C)C)C(=O)N[C@@H](CCCNC(=N)N)C(=O)N1CCC[C@H]1C(=O)NCC(N)=O [Peptide 3] (Ac-[d2Nal][dPhe(4-Cl)][dW]SY[dR]LRPG-NH2) is higher in “in vitro Potency relative to [Ac-dehydro Pro1, 4-F-D-Phe2, D-Trp3,6]-GnRH” value: 0.44 for the first, 0.56 for the second.

First: CC(=O)N[C@H](Cc1ccc2ccccc2c1)C(=O)N[C@H](Cc1ccc(F)cc1)C(=O)N[C@H](Cc1c[nH]c2ccccc12)C(=O)N[C@@H](CO)C(=O)N[C@@H](Cc1ccc(O)cc1)C(=O)N[C@H](Cc1ccc(N)cc1)C(=O)N[C@@H](CC(C)C)C(=O)N[C@@H](CCCNC(=N)N)C(=O)N1CCC[C@H]1C(=O)NCC(N)=O [Peptide 2] (Ac-[d2Nal][dPhe(4-F)][dW]SY[dPhe(4-NH2)]LRPG-NH2)
Second: CC(=O)N[C@H](Cc1ccc2ccccc2c1)C(=O)N[C@H](Cc1ccc(F)cc1)C(=O)N[C@H](Cc1c[nH]c2ccccc12)C(=O)N[C@@H](CO)C(=O)N[C@@H](Cc1ccc(O)cc1)C(=O)N[C@H](CCCNC(=N)N)C(=O)N[C@@H](CC(C)C)C(=O)N[C@@H](CCCNC(=N)N)C(=O)N1CCC[C@H]1C(=O)N[C@H](C)C(N)=O [Peptide 7] (Ac-[d2Nal][dPhe(4-F)][dW]SY[dR]LRP[dA]-NH2)
The “in vitro Potency relative to [Ac-dehydro Pro1, 4-F-D-Phe2, D-Trp3,6]-GnRH” value of the first is higher: 1.4 for the first, 0.63 for the second.

Compared with CCNC(=O)[C@@H]1CCCN1C(=O)[C@H](CCCNC(=N)N)NC(=O)[C@H](CC(C)C)NC(=O)[C@@H](CCCNC(=N)N)NC(=O)[C@H](Cc1ccc(O)cc1)NC(=O)[C@H](CO)NC(=O)[C@@H](Cc1c[nH]c2ccccc12)NC(=O)[C@@H](Cc1ccc(Cl)cc1)NC(=O)[C@@H](Cc1ccc2ccccc2c1)NC(C)=O [Peptide 4] (Ac-[d2Nal][dPhe(4-Cl)][dW]SY[dR]LRP-NHEt), CCNC(=O)[C@@H]1CCCN1C(=O)[C@H](CCCNC(=N)N)NC(=O)[C@H](CC(C)C)NC(=O)[C@@H](CCCNC(=N)N)NC(=O)[C@H](Cc1ccc(O)cc1)NC(=O)[C@H](CO)NC(=O)[C@@H](Cc1c[nH]c2ccccc12)NC(=O)[C@@H](Cc1ccc(Br)cc1)NC(=O)[C@@H](Cc1ccc2ccccc2c1)NC(C)=O [Peptide 6] (Ac-[d2Nal][dPhe(4-Br)][dW]SY[dR]LRP-NHEt) is higher in “in vitro Potency relative to [Ac-dehydro Pro1, 4-F-D-Phe2, D-Trp3,6]-GnRH” value: 0.38 for the first, 0.46 for the second.

In the case of CCNC(=O)[C@@H]1CCCN1C(=O)[C@H](CCCNC(=N)N)NC(=O)[C@H](CC(C)C)NC(=O)[C@@H](CCCNC(=N)N)NC(=O)[C@H](Cc1ccc(O)cc1)NC(=O)[C@H](CO)NC(=O)[C@@H](Cc1c[nH]c2ccccc12)NC(=O)[C@@H](Cc1ccc([N+](=O)[O-])cc1)NC(=O)[C@@H](Cc1ccc2ccccc2c1)NC(C)=O [Peptide 5] (Ac-[d2Nal][dPhe(4-NO2)][dW]SY[dR]LRP-NHEt), the “in vitro Potency relative to [Ac-dehydro Pro1, 4-F-D-Phe2, D-Trp3,6]-GnRH” value is reported as 0.20.

same assay, conditions: 3 nanomolar GnRH; usual value

With “[Ac-dehydro Pro^1, 4-F-D-Phe^2, D-Trp^3,6 ]-GnRH [standard peptide, reference compound]” the “ratio [antagonist]/1[GnRH] that blocks 50% of the LH released by GnRH” value was < 0.1 [antagonist]/1[GnRH].
